Read-outs that look alike come from different tables or passages of the source.
Key:
[1] = system: CH1; experiment: Inhibition of cell proliferation, human cancer cell lines in culture (CH1); assay type: cell-based
[2] = system: A2780; experiment: Inhibition of cell proliferation, human cancer cell lines in culture (A2780); assay type: cell-based
[3] = system: CH1 xenograft; experiment: CH1 xenograft antitumour activity; assay type: in vivo; details: for antitumour effect and tumour regrowth in the CH1 xenograft: derived from cell line sensitive to cisplatin
From the text: It has been reported by Tobe et al (Wadley Medical Bulletin 7, 1, 114-135) that steric effects of bulky substituents close to the platinum atom have a profound effect upon the rate of substitution reactions there. At that time no systematic study of the way in which variation of the substituent on the primary amine affects the rate and extend of bonding of the Pt complex to DNA had been undertaken.

[4] = system: 41M; experiment: Inhibition of cell proliferation, human cancer cell lines in culture (41M); assay type: cell-based; details: read-out: concentration necessary to achieve a 50% decrease in cell proliferation
[5] = system: ADJ/PC6; experiment: ADJ/PC6 tumour mass reduction in Balb C mice; assay type: in vivo
[6] = system: HX62; experiment: Inhibition of cell proliferation, human cancer cell lines in culture (HX62); assay type: cell-based
Method: (§1) The complexes of the invention were tested against human cancer cell lines grown in cell culture according to established testing procedures (described by Kelland et al, Cancer Research 53, 2581-2586, June 1993). […] The results are given in concentrations (μM) necessary to achieve a 50% decrease in cell proliferation, with resistance factors in brackets for the cisplatin-resistant cell lines.

[7] = system: A2780R; experiment: Inhibition of cell proliferation, human cancer cell lines in culture (A2780R); assay type: cell-based
Method: as §1

[8] = system: CH1R; experiment: Inhibition of cell proliferation, human cancer cell lines in culture (CH1R); assay type: cell-based
Method: as §1

[9] = system: SKOV3; experiment: Inhibition of cell proliferation, human cancer cell lines in culture (SKOV3); assay type: cell-based
Method: as §1

[10] = system: 41MR; experiment: Inhibition of cell proliferation, human cancer cell lines in culture (41MR); assay type: cell-based
Method: as §1

[11] = mouse, in vivo, po
[12] = CH1; read-out: concentration necessary to achieve a 50% decrease in cell proliferation
[13] = A2780; read-out: concentration necessary to achieve a 50% decrease in cell proliferation
[14] = inherently cisplatin sensitive line
[15] = HX62, inherently resistant to cisplatin; read-out: concentration necessary to achieve a 50% decrease in cell proliferation
[16] = HX62 IC50 divided by the IC50 for the 41M line
[17] = A2780R, bred to be resistant to cisplatin; read-out: concentration necessary to achieve a 50% decrease in cell proliferation
[18] = CH1R, bred to be resistant to cisplatin; read-out: concentration necessary to achieve a 50% decrease in cell proliferation
[19] = SKOV3, inherently resistant to cisplatin; read-out: concentration necessary to achieve a 50% decrease in cell proliferation
[20] = SKOV3 IC50 divided by the IC50 for the 41M line
[21] = 41MR, bred to be resistant to cisplatin; read-out: concentration necessary to achieve a 50% decrease in cell proliferation
[22] = Homo sapiens, read-out: concentration necessary to achieve a 50% decrease in cell proliferation
[23] = Homo sapiens; read-out: concentration necessary to achieve a 50% decrease in cell proliferation

| SMILES | IC50 [1, 12] [µM] | IC50 [2, 13] [µM] | IC50 [4, 14] [µM] | IC50 [6, 15] [µM] | resistance factor [6, 16] | resistance factor ([7]; A2780R versus A2780) | IC50 [7, 17] [µM] | resistance factor ([8]; CH1R versus CH1) | IC50 [8, 18] [µM] | IC50 [9, 19] [µM] | resistance factor [9, 20] | resistance factor ([10]; 41MR versus 41M) | IC50 [10, 21] [µM] | further results |
| --- | --- | --- | --- | --- | --- | --- | --- | --- | --- | --- | --- | --- | --- | --- |
| Cc1cccc[n+]1[Pt-2]([NH3+])([Cl])[Cl] [Example 1, (SP-4-3)-amminedichloro(2-methylpyridine) platinum(II)] | 1.9 | 1.28 | 4.1 | 40 | (9.8) | (3.4) | 4.4 | (1.9) | 3.7 | 17.5 | (4.3) | (1.2) | 5 | antitumour effect and tumour regrowth in the CH1 xenograft [3]: exhibits a curative effect, and the tumour does not grow back; potency in the CH1 xenograft compared with cisplatin ([3]; greater dose is required than cisplatin): slightly less potency; ED90; dose required to reduce tumour mass by 90% ([5]; ADJ/PC6, Daily × 5 (i.p.)): 0.8 mg/kg; ED90; dose required to reduce tumour mass by 90% ([5]; ADJ/PC6, Single dose (i.p.)): 3 mg/kg; ED90; dose required to reduce tumour mass by 90% ([5]; ADJ/PC6, Single dose (p.o.)): 6.2 mg/kg; histological evidence of organ toxicity (mice receiving a LD10 dose): No significant histological evidence of liver, kidney, spleen, gastrointestinal tract, brain or skin toxicity; levels of ALP, ALT, gut disaccharides maltose, sucrose and trehalose, urea and creatinine compared to control mice (treated mice (LD50 dose)): no significant differences; LD50; dose causing 50% lethality [11]: 560 mg/kg |
| Cc1cc[n+]([Pt-2]([NH3+])([OH])([OH])([Cl])[Cl])c(C)c1 [Example 7, (OC-6-43)-amminedichlorodihydroxo(2,4-dimethylpyridine)platinum(IV)] | 3.1 | 14 | 8 | 72 | (9) | (2.1) | 30 | (2.5) | 8.9 | 47 | (5.9) | (2.2) | 17.5 | – |
| N.N.[Cl][Pt][Cl] [Cisplatin, [PtCl2 (NH3)2], reference compound] | 0.12 | 0.35 | 0.41 | 15.5 | (37.8) | (22) | 7.8 | (3.7) | 0.44 | 4.3 | (10.5) | (4.6) | 1.9 | antitumour effect and tumour regrowth in the CH1 xenograft [3]: significant activity at the maximum tolerated dose, however the tumour does grow back; ED90; dose required to reduce tumour mass by 90% ([5]; ADJ/PC6, Daily × 5 (i.p.)): 0.2 mg/kg; ED90; dose required to reduce tumour mass by 90% ([5]; ADJ/PC6, Single dose (i.p.)): 1.6 mg/kg; ED90; dose required to reduce tumour mass by 90% ([5]; ADJ/PC6, Single dose (p.o.)): 24 mg/kg |
| Cc1ccnc(C)c1.N.[Cl][Pt][Cl] [Example 4, (SP-4-3)-amminedichloro(2,4-dimethylpyridine)platinum(II)] | 2.3 | 6.6 | 4.25 | 4.9 | (1) | – | 18 | (2.3) | 5.3 | 14 | (3) | (0.4) | 1.9 | – |
| CC(C)c1ccccn1 [Example 5, 2-isopropylpyridine] | – | – | – | – | (8) | (3.6) | – | (1.7) | – | – | (3.3) | (0.9) | – | IC50 ([1]; Homo sapiens, CH1, read-out: concentration necessary to achieve a 50% decrease in cell proliferation): 2.4 µM; IC50 ([2]; Homo sapiens, A2780, read-out: concentration necessary to achieve a 50% decrease in cell proliferation): 3.9 µM; IC50 ([4]; Homo sapiens): 6.1 µM; IC50 ([6]; Homo sapiens, HX62, read-out: concentration necessary to achieve a 50% decrease in cell proliferation): 49 µM; IC50 [7, 22]: 14 µM; IC50 [8, 22]: 4.2 µM; IC50 ([9]; Homo sapiens, SK-OV-3, read-out: concentration necessary to achieve a 50% decrease in cell proliferation): 20 µM; IC50 [10, 22]: 5.6 µM |
| CCc1ccccn1 [Example 2, 2-ethylpyridine] | – | – | – | – | (10) | (2.5) | – | (2.6) | – | – | (2.9) | (1.7) | – | IC50 ([1]; Homo sapiens, CH1; read-out: concentration necessary to achieve a 50% decrease in cell proliferation): 1.4 µM; IC50 ([2]; Homo sapiens, A2780; read-out: concentration necessary to achieve a 50% decrease in cell proliferation): 4.4 µM; IC50 ([4]; Homo sapiens): 3.4 µM; IC50 ([6]; Homo sapiens, HX62; read-out: concentration necessary to achieve a 50% decrease in cell proliferation): 36 µM; IC50 [7, 23]: 11 µM; IC50 [8, 23]: 3.6 µM; IC50 ([9]; Homo sapiens, SK-OV-3; read-out: concentration necessary to achieve a 50% decrease in cell proliferation): 20 µM; IC50 [10, 23]: 5.7 µM |
| N.N.O=C([O-])C1(C(=O)[O-])CCC1.[Pt+2] [Carboplatin, reference compound] | 1.3 | 2.6 | 3.3 | 85 | (26) | (14) | 37.4 | (4.6) | 6 | 37.7 | (11) | (2.7) | 8.8 | – |
